Data as given in the supplement of paper PMC10627819.

Legend:
S. aureus Newman = experiment: fitness (endpoint OD595 vs no drug) (fraction); higher = more growth
Method in brief: (§1)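 Cultures at OD595 0.01 were dispensed into 384-well plates in TSB, LB Lennox or CY and incubated at 37 °C. Every 30 min for 14 h, OD595 was read and corrected by the first reading. Fitness is the optical density at entry into stationary phase relative to the robust mean of no-drug control wells, capped at 1.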

S. aureus DSM 20231 [1] = experiment: Bliss interaction score (quartile over a dose matrix) (fitness difference); higher = more antagonism (negative = synergy)
Method in brief: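 Each plate was normalised to the robust mean of its own no-drug wells, using OD595 at entry into stationary phase, with values capped at 1. This normalised growth is the fitness value. The Bliss score is the difference between observed and product-expected fitness, with single-drug fitness inferred from the combination data and quartiles taken over technical, biological and donor/recipient replicates.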

S. pneumoniae D39V = experiment: fitness (endpoint OD595 vs no drug) (fraction); higher = more growth
Method in brief: as §1

S. aureus DSM 20231 [2] = experiment: as above
Method in brief: as §1
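For Bliss interaction score (quartile over a dose matrix) in this document: first quartile when negative (synergy) and third quartile when positive (antagonism).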

CC1(C)S[C@@H]2[C@H](NC(=O)[C@H](N)c3ccc(O)cc3)C(=O)N2[C@H]1C(=O)O [Amoxicillin] + CC1(C)S[C@@H]2[C@H](NC(=O)Cc3ccccc3)C(=O)N2[C@H]1C(=O)O [Penicillin G]
fitness, S. aureus Newman
Details	first compound 0.0625 µg/mL	first compound 0.125 µg/mL	first compound 0.25 µg/mL
partner 0.0195 µg/mL	0.845	0.855	–
partner 0.039 µg/mL	0.878	0.833	0.797
partner 0.078 µg/mL	0.796	0.801	0.807

CC1(C)S[C@@H]2[C@H](NC(=O)[C@H](N)c3ccc(O)cc3)C(=O)N2[C@H]1C(=O)O [Amoxicillin] + CC(=O)Oc1cccc2c1C(=O)c1c(OC(C)=O)cc(C(=O)O)cc1C2=O [Diacerein]
Details	Bliss interaction score
S. aureus DSM 20231 [1]	-0.192

CC1(C)S[C@@H]2[C@H](NC(=O)[C@H](N)c3ccc(O)cc3)C(=O)N2[C@H]1C(=O)O [Amoxicillin] + CC(=O)Oc1ccccc1C(=O)O [Acetylsalicylic acid]
fitness
Details	first compound 0.0008 µg/mL	first compound 0.0015 µg/mL	first compound 0.003 µg/mL	first compound 0.0625 µg/mL	first compound 0.125 µg/mL	first compound 0.25 µg/mL	first compound 0.5 µg/mL
S. aureus DSM 20231 [2], partner 250 µg/mL	–	–	–	0.511	0.448	0.0498	0.0014
S. aureus DSM 20231 [2], partner 500 µg/mL	–	–	–	0.449	0.395	0.05	0.0115
S. aureus DSM 20231 [2], partner 1000 µg/mL	–	–	–	0.144	0.284	0.0643	0.0095
S. pneumoniae D39V, partner 250 µg/mL	0.958	0.975	0.919	–	–	–	–
S. pneumoniae D39V, partner 500 µg/mL	0.939	0.923	0.905	–	–	–	–
S. pneumoniae D39V, partner 1000 µg/mL	0.774	0.896	0.865	–	–	–	–

S. pneumoniae D39V, first compound 0.006 µg/mL, one replicate
Details	fitness
partner 250 µg/mL	0.465
partner 500 µg/mL	0.507
partner 1000 µg/mL	0.483

CC1(C)S[C@@H]2[C@H](NC(=O)[C@H](N)c3ccc(O)cc3)C(=O)N2[C@H]1C(=O)O [Amoxicillin] + CC/C(=C(\c1ccccc1)c1ccc(OCCN(C)C)cc1)c1ccccc1 [Tamoxifene]
Details	Bliss interaction score
S. aureus DSM 20231 [1]	-0.148

CC1(C)S[C@@H]2[C@H](NC(=O)[C@H](N)c3ccc(O)cc3)C(=O)N2[C@H]1C(=O)O [Amoxicillin] + CCN(CC)CCOc1ccc(C(=C(Cl)c2ccccc2)c2ccccc2)cc1 [Clomiphene]
Details	Bliss interaction score
S. aureus DSM 20231 [1]	-0.255

CC1(C)S[C@@H]2[C@H](NC(=O)[C@H](N)c3ccc(O)cc3)C(=O)N2[C@H]1C(=O)O [Amoxicillin] + CN(C)[C@@H]1C(O)=C(C(N)=O)C(=O)[C@@]2(O)C(O)=C3C(=O)c4c(O)ccc(Cl)c4[C@@](C)(O)[C@H]3C[C@@H]12 [Chlortetracycline]
one replicate
Details	fitness
S. aureus DSM 20231 [2], first compound 0.125 µg/mL, partner 0.006 µg/mL	0.402
S. aureus DSM 20231 [2], first compound 0.25 µg/mL, partner 0.006 µg/mL	0.052
S. aureus DSM 20231 [2], first compound 0.5 µg/mL, partner 0.006 µg/mL	0
S. pneumoniae D39V, first compound 0.0008 µg/mL, partner 0.012 µg/mL	0.904
S. pneumoniae D39V, first compound 0.0008 µg/mL, partner 0.024 µg/mL	0.844
S. pneumoniae D39V, first compound 0.0008 µg/mL, partner 0.048 µg/mL	0.853
S. pneumoniae D39V, first compound 0.006 µg/mL, partner 0.012 µg/mL	0.482
S. pneumoniae D39V, first compound 0.006 µg/mL, partner 0.024 µg/mL	0.45
S. pneumoniae D39V, first compound 0.006 µg/mL, partner 0.048 µg/mL	0.378

fitness
Details	partner 0.012 µg/mL	partner 0.024 µg/mL	partner 0.048 µg/mL	partner 0.375 µg/mL	partner 0.75 µg/mL	partner 1.5 µg/mL
S. aureus DSM 20231 [2], first compound 0.0625 µg/mL	0.421	0.169	0.0806	–	–	–
S. aureus DSM 20231 [2], first compound 0.125 µg/mL	0.236	0.127	0.0782	–	–	–
S. aureus DSM 20231 [2], first compound 0.25 µg/mL	0.0422	0.0199	0.0289	–	–	–
S. aureus DSM 20231 [2], first compound 0.5 µg/mL	0.0037	0.0085	0.0227	–	–	–
S. pneumoniae D39V, first compound 0.0008 µg/mL	–	–	–	0.0877	0.0924	0.0983
S. pneumoniae D39V, first compound 0.0015 µg/mL	0.845	0.854	0.887	0.119	0.0947	0.123
S. pneumoniae D39V, first compound 0.003 µg/mL	0.808	0.804	0.85	0.0652	0.045	0.0882

CC1(C)S[C@@H]2[C@H](NC(=O)[C@H](N)c3ccc(O)cc3)C(=O)N2[C@H]1C(=O)O [Amoxicillin] + CO[C@@]12[C@H](COC(N)=O)C3=C(C(=O)C(C)=C(N)C3=O)N1C[C@@H]1N[C@@H]12 [Mitomycin C]
Details	fitness
S. aureus DSM 20231 [2], first compound 0.0625 µg/mL, partner 0.0156 µg/mL	0.522
S. aureus DSM 20231 [2], first compound 0.0625 µg/mL, partner 0.0312 µg/mL	0.467
S. aureus DSM 20231 [2], first compound 0.0625 µg/mL, partner 0.0625 µg/mL	0.31
S. aureus DSM 20231 [2], first compound 0.125 µg/mL, partner 0.0156 µg/mL	0.359
S. aureus DSM 20231 [2], first compound 0.125 µg/mL, partner 0.0312 µg/mL	0.226
S. aureus DSM 20231 [2], first compound 0.125 µg/mL, partner 0.0625 µg/mL	0.0925
S. aureus DSM 20231 [2], first compound 0.25 µg/mL, partner 0.0156 µg/mL	0.0215
S. aureus DSM 20231 [2], first compound 0.25 µg/mL, partner 0.0312 µg/mL	0.0317
S. aureus DSM 20231 [2], first compound 0.25 µg/mL, partner 0.0625 µg/mL	0.0251
S. aureus DSM 20231 [2], first compound 0.5 µg/mL, partner 0.0156 µg/mL	0.0035
S. aureus DSM 20231 [2], first compound 0.5 µg/mL, partner 0.0312 µg/mL	0.0009
S. aureus DSM 20231 [2], first compound 0.5 µg/mL, partner 0.0625 µg/mL	0.0008
S. aureus Newman, first compound 0.0625 µg/mL, partner 0.0156 µg/mL	0.67
S. aureus Newman, first compound 0.0625 µg/mL, partner 0.0312 µg/mL	0.646
S. aureus Newman, first compound 0.0625 µg/mL, partner 0.0625 µg/mL	0.502
S. aureus Newman, first compound 0.125 µg/mL, partner 0.0156 µg/mL	0.714
S. aureus Newman, first compound 0.125 µg/mL, partner 0.0312 µg/mL	0.649
S. aureus Newman, first compound 0.125 µg/mL, partner 0.0625 µg/mL	0.465
S. aureus Newman, first compound 0.25 µg/mL, partner 0.0312 µg/mL	0.627
S. pneumoniae D39V, first compound 0.0008 µg/mL, partner 0.001075 µg/mL	≥ 1
S. pneumoniae D39V, first compound 0.0008 µg/mL, partner 0.00215 µg/mL	0.895
S. pneumoniae D39V, first compound 0.0008 µg/mL, partner 0.0043 µg/mL	0.799
S. pneumoniae D39V, first compound 0.0015 µg/mL, partner 0.001075 µg/mL	0.994
S. pneumoniae D39V, first compound 0.0015 µg/mL, partner 0.002 µg/mL	0.778
S. pneumoniae D39V, first compound 0.0015 µg/mL, partner 0.00215 µg/mL	0.876
S. pneumoniae D39V, first compound 0.0015 µg/mL, partner 0.004 µg/mL	0.836
S. pneumoniae D39V, first compound 0.0015 µg/mL, partner 0.0043 µg/mL	0.816
S. pneumoniae D39V, first compound 0.0015 µg/mL, partner 0.008 µg/mL	0.674
S. pneumoniae D39V, first compound 0.003 µg/mL, partner 0.001075 µg/mL	0.938
S. pneumoniae D39V, first compound 0.003 µg/mL, partner 0.002 µg/mL	0.702
S. pneumoniae D39V, first compound 0.003 µg/mL, partner 0.00215 µg/mL	0.832
S. pneumoniae D39V, first compound 0.003 µg/mL, partner 0.004 µg/mL	0.728
S. pneumoniae D39V, first compound 0.003 µg/mL, partner 0.0043 µg/mL	0.761
S. pneumoniae D39V, first compound 0.003 µg/mL, partner 0.008 µg/mL	0.617

fitness, S. pneumoniae D39V, one replicate
Details	partner 0.002 µg/mL	partner 0.004 µg/mL	partner 0.008 µg/mL
first compound 0.0008 µg/mL	0.785	0.79	0.739
first compound 0.006 µg/mL	0.269	0.349	0.17
